# What was measured:
# bacteria, yeast and mold = experiment: Preservative effectiveness test, screening of preservatives (Table 3); format: cell-based; details: Table 3 screening
# Description: Solutions were prepared containing [Glu^22,25, Leu^23,28,31, Aib29, Lys^26,31]hPTHrP(1-34)NH2 (SEQ ID NO.: 2) 2 mg/ml, acetate buffer 6 mM and water for injection, with various different preservatives added at concentrations recommended for effective antimicrobial activity. Solutions were prepared at room temperature, by dissolution of the various ingredients in water for injection, with stirring over <30 minutes to ensure complete dissolution, Solutions were filtered through 0.2 micron filter and filled into glass vials, to which a rubber stopper was applied and crimped in place to ensure complete closure.
# The solution with methylparaben was less acceptable due to precipitation and inactivity immediately after manufacture of the solution. The solutions were then stored for up to 3 months at 25° C., and up to 4.5 months at 5° C. and the preservative effectiveness test repeated. as described in Example 5.
# Bacteria; Yeast and mold = experiment: Anti-microbial effectiveness test, overall result (conformity); format: cell-based; details: for preservative effectiveness results for both Bacteria and Yeasts/moulds: immediately after manufacture
# [1] = Chemical stability of formulations: (SEQ ID NO.: 2) content (Table 6); format: physicochemical; details: formulations of Table 6
# From the text: TABLE 6 details the chemical stability of the formulations described in Example 4.
Compound,"suitability as preservative for use with SEQ ID NO.: 2 (precipitation and/or inactivity in preservative activity) (bacteria, yeast and mold)",efficacy against Bacteria (Bacteria; Yeast and mold; after 3 and 4.5 months storage),preservative effectiveness results for both Bacteria and Yeasts/moulds (Bacteria; Yeast and mold),preservative efficacy for both Bacteria and Yeasts/moulds (Bacteria; Yeast and mold; after 3 and 4.5 months storage),"solution stability, influence of the preservative selected [1]"
OCc1ccccc1 [Benzyl Alcohol],not suitable,not compliant,compliant,,
Oc1ccccc1 [Phenol],,,compliant,maintained,
"CC[C@H](C)[C@H](NC(=O)[C@H](CO)NC(=O)[C@H](CCCCN)NC(=O)CNC(=O)[C@H](CCCCN)NC(=O)[C@H](CC(=O)O)NC(=O)[C@H](Cc1cnc[nH]1)NC(=O)[C@H](CC(C)C)NC(=O)[C@H](CC(C)C)NC(=O)[C@H](CCC(N)=O)NC(=O)[C@H](Cc1cnc[nH]1)NC(=O)[C@H](CCC(=O)O)NC(=O)[C@H](CO)NC(=O)[C@@H](NC(=O)[C@H](C)N)C(C)C)C(=O)N[C@@H](CCC(N)=O)C(=O)N[C@@H](CC(=O)O)C(=O)N[C@@H](CC(C)C)C(=O)N[C@@H](CCCNC(=N)N)C(=O)N[C@@H](CCCNC(=N)N)C(=O)N[C@@H](CCCNC(=N)N)C(=O)N[C@@H](CCC(=O)O)C(=O)N[C@@H](CC(C)C)C(=O)N[C@@H](CC(C)C)C(=O)N[C@@H](CCC(=O)O)C(=O)N[C@@H](CCCCN)C(=O)N[C@@H](CC(C)C)C(=O)N[C@@H](CC(C)C)C(=O)NC(C)(C)C(=O)N[C@@H](CCCCN)C(=O)N[C@@H](CC(C)C)C(=O)N[C@@H](Cc1cnc[nH]1)C(=O)N[C@H](C(=O)N[C@@H](C)C(N)=O)[C@@H](C)O [SEQ ID NO.: 2, [Glu^22,25, Leu^23,28,31, Aib^29, Lys^26,30]hPTHrP(1-34)NH2]",,,,,not significantly influenced
COC(=O)c1ccc(O)cc1 [Methyparaben],not suitable,,,,

# Reference: patent publication US8148333B2, “Stable composition comprising a PTHrP analogue” (priority 2006, dated 2012)
